What was measured:
[1] = Assay 1. Stability of multibiotic agents in a buffer; assay type: physicochemical; design: key to Assay 1 (% Remaining @ 24 hours): A: <25% of the tested compound remaining; B: 25-75% of the tested compound remaining; C: >75% of the tested compound remaining; D: no change in the amount of the tested compound; settings: for degradation in Assay 1 (in words): buffer stability; for Assay 1 (% Remaining @ 24 hours): phosphate buffer pH 2, 4, 6 and 8, RT, 2 μM, LC/MS/MS
Procedure: Assay 1. Stability of multibiotic agents in a buffer. This assay can be used for the assessment of the stability of a multibiotic agent at different physiological pH levels.
Compounds were diluted in DMSO, and the resulting solution was added in the appropriate quantity to phosphate buffer (pH levels 2, 4, 6, and 8) to reach a total sample concentration of 2 μM. Compounds were incubated at RT, and aliquots were removed at time points 0, 60, 120, 360 and 1440 minutes and analyzed for purity by LC/MS/MS.

[2] = Assay 4. Fecal Incubation Stability; assay type: in vitro ADME; settings: fecal slurry in YCFA media, anaerobic, 1 or 10 μM
Procedure: Assay 4. Fecal Incubation Stability. This assay can be used to assess the stability of a multibiotic agent in a large intestine. All experiments performed in an anaerobic chamber containing 90% nitrogen, 5% hydrogen and 5% carbon dioxide. Fecal matter in a slurry (15% (w/v)) was added to 96 well plates containing YCFA media or other suitable media (1.6 mL). Compounds were added to each individual well to reach a final analyte concentration of 1 or 10 μM, and the material was mixed by pipetting. At predetermined timepoints a sample was removed, quenched with acetonitrile, and analyzed by LC/MS.

[3] = Stability of multibiotic agents in Simulated Intestinal Fluid (SIF); assay type: in vitro ADME; settings: simulated intestinal fluid pH 6.7 with pancreatin, 37° C., 1 μM
In short: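 Compounds at 1 μM final (from 1 mM DMSO stock) incubated at 37 °C with agitation in fresh SIF (FaSSIF plus pancreatin in pH 6.7 phosphate buffer). Aliquots taken at T0 and regular intervals, quenched with 1 volume acetonitrile. Degradation rate determined by LC/MS.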

[4] = Stability of multibiotic agents in Simulated Gastric Fluid (SGF); assay type: in vitro ADME; settings: simulated gastric fluid pH 1.6 with pepsin, 37° C., 1 μM
In short: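 Compounds were incubated at 1 μM final at 37 °C in simulated gastric fluid containing NaCl, pH 1.6, with FaSSIF powder and 0.1 mg/mL pepsin. Aliquots were taken at T0 and at regular intervals and quenched with acetonitrile. Degradation rates were determined by LC/MS.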

## CCCC(=O)OC1OC[C@@H](OC(=O)CCC)[C@H](OC(=O)CCC)[C@H]1OC(=O)CCC (mixture of isomers) [Example 29, [(3R,4S,5R)-4,5,6-tri(butanoyloxy)tetrahydropyran-3-yl] butanoate]
[1]
  degradation in Assay 1 (in words): no apparent degradation
  Assay 1 (% Remaining @ 24 hours): D

## CCCC(=O)Oc1ccc2c(c1)oc(=O)c1cc(OC(=O)CCC)c(OC(=O)CCC)cc12 [Example 52, 8,9-di(butanoyloxy)-6-oxo-benzo[c]chromen-3-yl] butanoate]
[2]
  Assay 4 (% Remaining at 24 h): A (<25% of the tested compound remaining)

## O=C(CCCc1ccccc1)OC1OC[C@@H](OC(=O)CCCc2ccccc2)[C@H](OC(=O)CCCc2ccccc2)[C@H]1OC(=O)CCCc1ccccc1 (mixture of isomers) [Example 24, [(3R,4S,5R)-4,5,6-tris(4-phenylbutanoyloxy)tetrahydropyran-3-yl] 4-phenylbutanoate]
[1]
  degradation in Assay 1 (in words): no apparent degradation
  Assay 1 (% Remaining @ 24 hours): D

## O=C(CCc1c[nH]c2ccccc12)Oc1ccc(/C=C/c2cc(OC(=O)CCc3c[nH]c4ccccc34)cc(OC(=O)CCc3c[nH]c4ccccc34)c2)cc1 [Example 71, [4-[(E)-2-[3,5-bis[3-(1H-indol-3-yl)propanoyloxy]phenyl]vinyl]phenyl] 3-(1H-indol-3-yl)propanoate]
[2]
  Assay 4 (% Remaining at 24 h): C (>75% of the tested compound remaining)
[3]
  Assay 3 (SIF) (% @ Remaining 4 hours): C (>75% of the tested compound remaining)
[4]
  Assay 2 (SGF) (% Remaining @ 4 hours): C (>75% of the tested compound remaining)

## CC(=O)Oc1cc(OC(C)=O)c2c(c1)O[C@H](c1cc(OC(C)=O)c(OC(C)=O)c(OC(C)=O)c1)[C@H](OC(=O)c1cc(OC(C)=O)c(OC(C)=O)c(OC(C)=O)c1)C2 [Example 16, [(2R,3R)-5,7-diacetoxy-2-(3,4,5-triacetoxyphenyl)chroman-3-yl] 3,4,5-triacetoxybenzoate]
[2]
  Assay 4 (% Remaining at 24 h): A (<25% of the tested compound remaining)
[3]
  Assay 3 (SIF) (% @ Remaining 4 hours): A (<25% of the tested compound remaining)
[4]
  Assay 2 (SGF) (% Remaining @ 4 hours): C (>75% of the tested compound remaining)

## CCCC(=O)Oc1ccc(C2CC(=O)c3c(OC(=O)CCC)cc(OC(=O)CCC)cc3O2)cc1 (stereo not shown) [Example 171, [4-[5,7-di(butanoyloxy)-4-oxo-chroman-2-yl]phenyl] butanoate]
[3]
  Assay 3 (SIF) (% @ Remaining 4 hours): A (<25% of the tested compound remaining)
[4]
  Assay 2 (SGF) (% Remaining @ 4 hours): B (25-75% of the tested compound remaining)

## CCCC(=O)O[C@@H]1[C@@H](OC(=O)CCC)[C@H](Oc2ccc(N)cc2C(=O)O)OC[C@H]1OC(=O)CCC [Example 21, 5-amino-2-[(2S,3R,4S,5R)-3,4,5-tri(butanoyloxy)tetrahydropyran-2-yl]oxy-benzoic acid]
[3]
  Assay 3 (SIF) (% @ Remaining 4 hours): C (>75% of the tested compound remaining)
[1]
  degradation in Assay 1 (in words): no apparent degradation
  Assay 1 (% Remaining @ 24 hours): D
[4]
  Assay 2 (SGF) (% Remaining @ 4 hours): C (>75% of the tested compound remaining)

## CCCC(=O)Oc1ccc(/N=N/c2ccc(OC(=O)CCC)c(C(=O)O)c2)cc1C(=O)O [Example 3, 2-butanoyloxy-5-[(E)-(4-butanoyloxy-3-carboxy-phenyl)azo]benzoic acid]
[3]
  Assay 3 (SIF) (% @ Remaining 4 hours): A (<25% of the tested compound remaining)
[4]
  Assay 2 (SGF) (% Remaining @ 4 hours): A (<25% of the tested compound remaining)

## CC(C)(COC(=O)/C=C/c1c[nH]c2ccccc12)[C@@H](OC(=O)/C=C/c1c[nH]c2ccccc12)C(=O)NCCC(N)=O [Example 124, [(3R)-4-[(3-amino-3-oxo-propyl)amino]-3-[(E)-3-(1H-indol-3-yl)prop-2-enoyl]oxy-2,2-dimethyl-4-oxo-butyl] (E)-3-(1H-indol-3-yl)prop-2-enoate]
[3]
  Assay 3 (SIF) (% @ Remaining 4 hours): C (>75% of the tested compound remaining)
[4]
  Assay 2 (SGF) (% Remaining @ 4 hours): C (>75% of the tested compound remaining)

## CC(=O)CC(=O)O[C@H]1CO[C@H]2[C@@H]1OC[C@H]2OC(=O)CC(C)=O [Example 115, [(3S,3aR,6R,6aR)-6-(3-oxobutanoyloxy)-2,3,3a,5,6,6a-hexahydrofuro[3,2-b]furan-3-yl] 3-oxobutanoate]
[3]
  Assay 3 (SIF) (% @ Remaining 4 hours): B (25-75% of the tested compound remaining)
[4]
  Assay 2 (SGF) (% Remaining @ 4 hours): C (>75% of the tested compound remaining)

## CCCC(=O)Nc1ccc(O)c(C(=O)O)c1 [Example 116, 5-(butanoylamino)-2-hydroxy-benzoic acid]
[3]
  Assay 3 (SIF) (% @ Remaining 4 hours): C (>75% of the tested compound remaining)
[4]
  Assay 2 (SGF) (% Remaining @ 4 hours): C (>75% of the tested compound remaining)

## C[C@@H](O)CC(=O)NCCCNC(=O)C[C@@H](C)O [Example 135, (3R)-3-hydroxy-N-[3-[[(3R)-3-hydroxybutanoyl]amino]propyl]butanamide]
[3]
  Assay 3 (SIF) (% @ Remaining 4 hours): C (>75% of the tested compound remaining)
[4]
  Assay 2 (SGF) (% Remaining @ 4 hours): C (>75% of the tested compound remaining)

## CCCC(=O)NCCCCN(CCCNC(=O)CCC)C(=O)CCC [Example 127, N-[4-[butanoyl-[3-(butanoylamino)propyl]amino]butyl]butanamide]
[3]
  Assay 3 (SIF) (% @ Remaining 4 hours): C (>75% of the tested compound remaining)
[4]
  Assay 2 (SGF) (% Remaining @ 4 hours): C (>75% of the tested compound remaining)

## C[C@@H](O)CC(=O)O[C@H]1CO[C@H]2[C@@H]1OC[C@H]2OC(=O)C[C@@H](C)O [Example 78, [(3S,3aR,6R,6aR)-6-[(3R)-3-hydroxybutanoyl]oxy-2,3,3a,5,6,6a-hexahydrofuro[3,2-b]furan-3-yl] (3R)-3-hydroxybutanoate]
[3]
  Assay 3 (SIF) (% @ Remaining 4 hours): B (25-75% of the tested compound remaining)
[4]
  Assay 2 (SGF) (% Remaining @ 4 hours): C (>75% of the tested compound remaining)

## C[C@@H](O)CC(=O)NCCCNCCCCN(CCCNC(=O)C[C@@H](C)O)C(=O)C[C@@H](C)O [Example 137, (3R)-3-hydroxy-N-[3-[4-[[(3R)-3-hydroxybutanoyl]-[3-[[(3R)-3-hydroxybutanoyl]amino]propyl]amino]butylamino]propyl]butanamide]
[3]
  Assay 3 (SIF) (% @ Remaining 4 hours): C (>75% of the tested compound remaining)
[4]
  Assay 2 (SGF) (% Remaining @ 4 hours): C (>75% of the tested compound remaining)

## C[C@@H](O)CCOC(=O)C[C@@H](C)O [Example 172, [(3R)-3-hydroxybutyl] (3R)-3-hydroxybutanoate]
[3]
  Assay 3 (SIF) (% @ Remaining 4 hours): C (>75% of the tested compound remaining)
[4]
  Assay 2 (SGF) (% Remaining @ 4 hours): C (>75% of the tested compound remaining)

## CC(=O)OC[C@H](OC(C)=O)[C@@H](COC(C)=O)OC(C)=O [Example 81, (2R, 3S)-butane-1,2,3,4-tetrayl tetraacetate]
[3]
  Assay 3 (SIF) (% @ Remaining 4 hours): C (>75% of the tested compound remaining)
[4]
  Assay 2 (SGF) (% Remaining @ 4 hours): C (>75% of the tested compound remaining)

## CCCC(=O)NCCCNC(=O)CCC [Example 126, N-[3-(butanoylamino)propyl]butanamide]
[3]
  Assay 3 (SIF) (% @ Remaining 4 hours): C (>75% of the tested compound remaining)
[4]
  Assay 2 (SGF) (% Remaining @ 4 hours): C (>75% of the tested compound remaining)

## CCCC(=O)Oc1cc(OC(=O)CCC)c2c(=O)c(OC(=O)CCC)c(-c3ccc(OC(=O)CCC)c(OC(=O)CCC)c3)oc2c1 [Example 75, [2-butanoyloxy-4-[3,5,7-tri(butanoyloxy)-4-oxo-chromen-2-yl]phenyl]butanoate]
[3]
  Assay 3 (SIF) (% @ Remaining 4 hours): B (25-75% of the tested compound remaining)
[4]
  Assay 2 (SGF) (% Remaining @ 4 hours): C (>75% of the tested compound remaining)

## CCCC(=O)O[C@@H]1[C@H](OC(=O)CCC)[C@H](C)OC(O)[C@H]1OC(=O)CCC (stereo partly drawn) [Example 156, [(2S,3R,4R,5S)-4,5-di(butanoyloxy)-6-hydroxy-2-methyl-tetrahydropyran-3-yl] butanoate]
[3]
  Assay 3 (SIF) (% @ Remaining 4 hours): A (<25% of the tested compound remaining)
[4]
  Assay 2 (SGF) (% Remaining @ 4 hours): C (>75% of the tested compound remaining)

— US20230293458A1, “MULTIBIOTIC AGENTS AND METHODS OF USING THE SAME” (Flagship Pioneering Innovations V, Inc., priority 2017, published 2023)
